Consider three compounds from ChEMBL document CHEMBL4411300 (Eur J Med Chem, 2019).

The term IC50 denotes the concentration at which inhibition is half-maximal.

Calls of active or inactive are those of the source. No cut-off for these calls is given here. A value given as a limit tells only on which side of the number the result lay.

The nature of data set [1]: Cardiotoxicity in Balb/c mouse infected with Trypanosoma cruzi MHOM/Pe/2011/Arequipa DTU 5 trypomastigotes assessed as change in serum LDH level at 20 mg/kg, po once daily for 5 consecutive days starting from day 10 post infection measured on day 127 post infection by biochemical analysis (reference value: 2761 U/L). Type of data set: toxicity, organism-based. The following applies: in vivo.

Data set [2] can be described thus: Hepatotoxicity in Balb/c mouse infected with Trypanosoma cruzi MHOM/Pe/2011/Arequipa DTU 5 trypomastigotes assessed as increase in alkaline phosphatase level at 20 mg/kg, po once daily for 5 consecutive days starting from day 10 post infection measured on day 16 post infection relative to control. To be noted: in vivo. Type of data set: toxicity, organism-based.

Data set [3] in a line: Cardiotoxicity in Balb/c mouse infected with Trypanosoma cruzi MHOM/Pe/2011/Arequipa DTU 5 trypomastigotes assessed as change in ratio of creatine kinase in muscle to brain at 20 mg/kg, po once daily for 5 consecutive days starting from day 10 post infection measured on day 127 post infection by biochemical analysis (reference value: 496 U/L). Type of data set: toxicity, organism-based. To be noted: in vivo.

Data set [4] deals with Trypanosoma cruzi. The experiment in a line: Antitrypanosomal activity against Trypanosoma cruzi MHOM/Pe/2011/Arequipa DTU 5 trypomastigotes infected in Balb/c mouse assessed as reduction in splenomegaly at 20 mg/kg, po once daily for 5 consecutive days starting from day 10 post infection measured on day 127 post infection. It counts as functional, organism-based.
A short description of data set [5]: Nephrotoxicity in Balb/c mouse infected with Trypanosoma cruzi MHOM/Pe/2011/Arequipa DTU 5 trypomastigotes assessed as serum uric acid level at 20 mg/kg, po once daily for 5 consecutive days starting from day 10 post infection measured on day 127 post infection (reference value: 4 mg/dl). Type of data set: toxicity, organism-based. The following applies: in vivo.

Data set [6] is described as follows: Nephrotoxicity in Balb/c mouse infected with Trypanosoma cruzi MHOM/Pe/2011/Arequipa DTU 5 trypomastigotes assessed as decrease in serum urea level at 20 mg/kg, po once daily for 5 consecutive days starting from day 75 post infection measured on day 81 post infection relative to control. Details: scale not given: the % may be the effect or the level left. The following applies: in vivo. Type of data set: toxicity, organism-based.

Data set [7] can be described thus: Hepatotoxicity in Balb/c mouse infected with Trypanosoma cruzi MHOM/Pe/2011/Arequipa DTU 5 trypomastigotes assessed as increase in total bilirubin level at 20 mg/kg, po once daily for 5 consecutive days starting from day 10 post infection measured on day 16 post infection relative to control. To be noted: in vivo. It counts as toxicity, organism-based.
Data set [8] is described as follows: Cardiotoxicity in Balb/c mouse infected with Trypanosoma cruzi MHOM/Pe/2011/Arequipa DTU 5 trypomastigotes assessed as change in ratio of creatine kinase in muscle to brain at 20 mg/kg, po once daily for 5 consecutive days starting from day 10 post infection measured on day 16 post infection by biochemical analysis (reference value: 535 U/L). Type of data set: toxicity, organism-based. To be noted: in vivo.

The nature of data set [9]: Cardiotoxicity in Balb/c mouse infected with Trypanosoma cruzi MHOM/Pe/2011/Arequipa DTU 5 trypomastigotes assessed as change in serum LDH level at 20 mg/kg, po once daily for 5 consecutive days starting from day 10 post infection measured on day 16 post infection by biochemical analysis (reference value: 3275 U/L). The following applies: in vivo. Type of data set: toxicity, organism-based.

Data set [10] in a line: Nephrotoxicity in Balb/c mouse infected with Trypanosoma cruzi MHOM/Pe/2011/Arequipa DTU 5 trypomastigotes assessed as decrease in serum urea level at 20 mg/kg, po once daily for 5 consecutive days starting from day 10 post infection measured on day 16 post infection relative to control. Details: scale not given: the % may be the effect or the level left. To be noted: in vivo. It counts as toxicity, organism-based.

Data set [11] can be described thus: Nephrotoxicity in Balb/c mouse infected with Trypanosoma cruzi MHOM/Pe/2011/Arequipa DTU 5 trypomastigotes assessed as decrease in serum urea level at 20 mg/kg, po once daily for 5 consecutive days starting from day 75 post infection measured on day 127 post infection relative to control. To be noted: in vivo. Details: scale not given: the % may be the effect or the level left. It counts as toxicity, organism-based.

Data set [12] is described as follows: Nephrotoxicity in Balb/c mouse infected with Trypanosoma cruzi MHOM/Pe/2011/Arequipa DTU 5 trypomastigotes assessed as decrease in serum uric acid level at 20 mg/kg, po once daily for 5 consecutive days starting from day 10 post infection measured on day 16 post infection relative to control. It counts as toxicity, organism-based. Details: scale not given: the % may be the effect or the level left. To be noted: in vivo.

Data set [13] in a line: Hepatotoxicity in Balb/c mouse infected with Trypanosoma cruzi MHOM/Pe/2011/Arequipa DTU 5 trypomastigotes assessed as increase in total bilirubin level at 20 mg/kg, po once daily for 5 consecutive days starting from day 10 post infection measured on day 127 post infection by biochemical analysis relative to control. Type of data set: toxicity, organism-based. To be noted: in vivo.

Data set [14] relates to Trypanosoma cruzi. The experiment in a line: Antitrypanosomal activity against Trypanosoma cruzi MHOM/Pe/2011/Arequipa DTU 5 epimastigotes assessed as change in mitochondrial membrane potential at IC25 after 72 hrs by Rho123 staining based flow cytometry relative to control. It counts as functional. (Flow cytometry measures light scatter and fluorescence of single cells or particles in a stream.)

A short description of data set [15]: Cardiotoxicity in Balb/c mouse infected with Trypanosoma cruzi MHOM/Pe/2011/Arequipa DTU 5 trypomastigotes assessed as change in ratio of creatine kinase in muscle to brain at 20 mg/kg, po once daily for 5 consecutive days starting from day 75 post infection measured on day 127 post infection (reference value: 538 U/L). It counts as toxicity, organism-based. The following applies: in vivo.

Data set [16] in a line: Hepatotoxicity in Balb/c mouse infected with Trypanosoma cruzi MHOM/Pe/2011/Arequipa DTU 5 trypomastigotes assessed as increase in ratio of serum AST to GOT level at 20 mg/kg, po once daily for 5 consecutive days starting from day 10 post infection measured on day 127 post infection by biochemical analysis relative to control. Type of data set: toxicity, organism-based. To be noted: in vivo.

For data set [17], the system named is Trypanosoma cruzi. As to the kind of experiment: Induction of […] Trypanosoma cruzi MHOM/Pe/2011/Arequipa DTU 5 epimastigotes assessed as inhibition of DNA and RNA levels at IC25 after 72 hrs by acridine orange staining based flow cytometry relative to control. Type of data set: functional.
Data set [18] has as its system Trypanosoma cruzi. As to the kind of experiment: Antitrypanosomal activity against Trypanosoma cruzi MHOM/Pe/2011/Arequipa DTU 5 trypomastigotes infected in Balb/c mouse assessed as reduction in splenomegaly at 20 mg/kg, po once daily for 5 consecutive days starting from day 75 post infection measured on day 127 post infection. Type of data set: functional, organism-based.

The nature of data set [19]: Hepatotoxicity in Balb/c mouse infected with Trypanosoma cruzi MHOM/Pe/2011/Arequipa DTU 5 trypomastigotes assessed as increase in alkaline phosphatase level at 20 mg/kg, po once daily for 5 consecutive days starting from day 75 post infection measured on day 81 post infection relative to control. Type of data set: toxicity, organism-based. To be noted: in vivo.
Data set [20] is described as follows: Nephrotoxicity in Balb/c mouse infected with Trypanosoma cruzi MHOM/Pe/2011/Arequipa DTU 5 trypomastigotes assessed as decrease in serum uric acid level at 20 mg/kg, po once daily for 5 consecutive days starting from day 75 post infection measured on day 81 post infection relative to control. Type of data set: toxicity, organism-based. Also noted: scale not given: the % may be the effect or the level left. To be noted: in vivo.

The nature of data set [21]: Selectivity index, ratio of IC50 for African green monkey Vero cells to IC50 for Trypanosoma cruzi TINF/CH/1956/Tulahuen DTU 6 trypomastigotes derived from infected Balb/c albino mouse. It counts as toxicity. To be noted: read-out: Ratio IC50.
Data set [22] in a line: Toxicity in Balb/c mouse assessed as death at 20 mg/kg, po once daily for 5 consecutive days starting from day 10 post infection. It counts as organism-based. To be noted: in vivo.
Data set [23] has as its system Trypanosoma cruzi. The experiment in a line: Trypanocidal activity against Trypanosoma cruzi IRHOD/CO/2008/SN3 DTU 1 epimastigotes after 48 to 72 hrs by resazurin dye based assay. It counts as functional, organism-based. (The colour change of resazurin is a common sign of viable cells or microbes.)
The test system of data set [24] is Trypanosoma cruzi. As to the kind of experiment: Trypanocidal activity against Trypanosoma cruzi MHOM/Pe/2011/Arequipa DTU 5 trypomastigotes derived from infected Balb/c albino mouse after 24 hrs by resazurin dye based assay. It counts as functional, organism-based. The following applies: MHOM/Pe/2011/Arequipa DTU 5, 24 h.
The subject of data set [25] is Trypanosoma cruzi. The experiment in a line: Trypanocidal activity against Trypanosoma cruzi TINF/CH/1956/Tulahuen DTU 6 epimastigotes after 48 to 72 hrs by resazurin dye based assay. It counts as functional, organism-based.
Data set [26] is described as follows: Selectivity index, ratio of IC50 for African green monkey Vero cells to IC50 for Trypanosoma cruzi MHOM/Pe/2011/Arequipa DTU 5 epimastigotes. It counts as toxicity. The following applies: read-out: Ratio IC50.

With `O=C(Cn1ccnc1[N+](=O)[O-])NCc1ccccc1` [BENZNIDAZOLE], the Activity in [1] was 2761 U/L; in data set [2], “<= 20%”; in data set [3], 496 U/L; in data set [5], 4 mg/dL; in data set [6], “<= 10%”; in [7], “<= 20%”. In addition, the Activity is recorded as 535 U/L in [8]; 3275 U/L in [9]; “<= 10%” in data set [10]; “<= 10%” in [11]; “<= 10%” in [12]; “<= 10%” in data set [13]. Besides, the Activity with Trypanosoma cruzi [14] was -35.4%; in data set [15], 538 U/L; in data set [16] it was more than 40%; in data set [19] it was more than 40%; in data set [20], “<= 10%”. Further, the outcome in the data set with Trypanosoma cruzi [4] and in the data set with Trypanosoma cruzi [18] was Active. The “inhibition (INH)” value with Trypanosoma cruzi [17] was 22.4%.

For the compound `Cl.Cl.Cl.NCCN(CCN)CCNCc1ccc2c(c1)Cc1ccccc1-2`, the Activity was 2761 U/L in data set [1]; “<= 20%” in data set [2]; “Non-Toxic” in data set [22]; 496 U/L in [3]; 4 mg/dL in data set [5]; “<= 10%” in [6]. Moreover, the Activity result was “<= 30%” in data set [7]; “<= 10%” in data set [10]; “<= 10%” in data set [11]; “<= 10%” in [12]; “<= 10%” in data set [13]; 7.6% with Trypanosoma cruzi [14]. Also, the Activity in [15] is 538 U/L; in [16], “<= 30%”; in data set [20], “<= 10%”. In addition, the selectivity ratio in [21] stood at 100; in data set [26] it was 66.3. The result in the data set on Trypanosoma cruzi [4] and with Trypanosoma cruzi [18] was Active. Further, the IC50 in the data set with Trypanosoma cruzi [23] came to 19.3 µM; in the data set with Trypanosoma cruzi [24], 14.7 µM; with Trypanosoma cruzi [25], 30.7 µM. Moreover, the “inhibition (INH)” value in the data set on Trypanosoma cruzi [17] stood at 18.3%.

Take `Cl.Cl.Cl.Cl.Cl.Cl.c1ccc2nc(CNCCN(CCNCc3ccc4ccccc4n3)CCNCc3ccc4ccccc4n3)ccc2c1`: the Activity in [1] was 2761 U/L; in data set [2] it was “<= 10%”; in data set [22], “Non-Toxic”; in [3], 496 U/L; in [5], 4 mg/dL; in data set [6], “<= 10%”. Moreover, the Activity entry is on record as “<= 30%” in [7]; 535 U/L in data set [8]; 3275 U/L in data set [9]; “<= 10%” in [10]; “<= 10%” in data set [11]; “<= 10%” in data set [12]. The Activity result in data set [13] is “<= 10%”; in the data set with Trypanosoma cruzi [14] it was -73.6%; in data set [15], 538 U/L; in data set [16], “<= 10%”; in data set [19] it was “<= 20%”; in data set [20], “<= 10%”. Moreover, the selectivity ratio in data set [21] was found to be 890; in data set [26], 110. Besides, the outcome in the data set with Trypanosoma cruzi [4] and in the data set on Trypanosoma cruzi [18] was Active. For the same compound, the half-maximal inhibitory concentration (IC50) in the data set on Trypanosoma cruzi [23] came out at 14 µM; in the data set on Trypanosoma cruzi [24] it was 1.2 µM; with Trypanosoma cruzi [25], 19.5 µM. The “inhibition (INH)” value with Trypanosoma cruzi [17] stood at 56.7%.
